For series [1] the following is noted: prior-art compound; cited from earlier work.
For series [2] the following is noted: prior-art compound; cited from earlier work. This is another data set of the same source.
The test system of series [3] is rat. The series is described as follows: Adjuvant arthritis test in the rat (Pearson et al), anti-inflammatory effect. Format: in vivo. The following applies: sub-chronic; for Adjuvant arthritis: test series III, equimolar quantities; for adjuvant arthritis test compared with comparison compound: versus Comparison Compound C. Here is the method: (§1) The physiological activity of the compounds prepared in the Examples has been tested using various test methods and compared with the activities of various structurally similar commercial products. In each case, testing was carried out with equimolar quantities of the test compounds. The anti-inflammatory effect was measured by the carrageenin oedema test on rat paws using the method of Winter et al (Proceed. Soc. Exp. Biol. Med. 111(1962) Page 544) and in test series III) and also by the adjuvant arthritis test in the rat according to Pearson et al (Arthrit. Rheumat. 2(1959) page 440).

Series [4] has as its system mice. As to the kind of experiment: Toxicity by oral administration to mice. Format: in vivo, mouse. The note with it: versus Comparison Compound of the same test series. The method, then: (§2) The physiological activity of the compounds prepared in the Examples has been tested using various test methods and compared with the activities of various structurally similar commercial products. In each case, testing was carried out with equimolar quantities of the test compounds.
The toxicity was measured by oral administration to 50 mice.

Series [5] can be described thus: Analgesic activity / overall physiological activity, in words. The note with it: test not specified; versus Comparison Compound C. It is filed as in vivo. The method, then:
as §2
The analgesic activity was determined by the Writhing Test in the mouse using the method of E. Siegmund et al (Proceed. Soc. --Exp. Biol. Med. 95(1957) Page 729) and by the Randall-Selitto Test in the rat using the method of Randall and Selitto (Arch. Int. Pharmacodyn. 111(1957) Page 409).
The anti-inflammatory effect was measured by the carrageenin oedema test on rat paws using the method of Winter et al (Proceed. Soc. Exp. Biol. Med. 111(1962) Page 544) and in test series III) and also by the adjuvant arthritis test in the rat according to Pearson et al (Arthrit. Rheumat. 2(1959) page 440).

The test system of series [6] is rat. The series is described as follows: Randall-Selitto Test in the rat, analgesic activity. Format: in vivo. The following applies: versus Comparison Compound of the same test series. The method, then: (§3) The physiological activity of the compounds prepared in the Examples has been tested using various test methods and compared with the activities of various structurally similar commercial products. In each case, testing was carried out with equimolar quantities of the test compounds. The analgesic activity was determined by the Writhing Test in the mouse using the method of E. Siegmund et al (Proceed. Soc. --Exp. Biol. Med. 95(1957) Page 729) and by the Randall-Selitto Test in the rat using the method of Randall and Selitto (Arch. Int. Pharmacodyn. 111(1957) Page 409).

The test system of series [7] is carrageenin oedema on rat paws. As to the kind of experiment: Carrageenin oedema test on rat paws (Winter et al), anti-inflammatory effect. The note with it: rat paw; versus Comparison Compound of the same test series. It is filed as in vivo. Here is the method:
as §1
A general note: In the carrageenan paw model, swelling and tenderness develop within hours.

For series [8], the system named is mouse. The series is described as follows: Writhing Test in the mouse (Siegmund et al), analgesic activity. Format: in vivo. The following applies: versus Comparison Compound of the same test series. Here is the method: as §3
On the technique in general: An intraperitoneal irritant provokes the stretching counted in writhing tests.

Data on 11 compounds can be found in US4160828A, “Analgesic phosphinyl compounds and compositions” (Hoechst Aktiengesellschaft, priority 1978, dated 1979).

Take `O=C(OCC(O)CO)c1ccccc1Nc1ccnc2cc(Cl)ccc12` (stereo not drawn) [2,3-dihydroxypropyl N-(7-chloro-4-quinolyl)-anthranilate]: in series [1], the “analgesic activity, prior art” value is “known to have analgesic activity”. Besides, the “solubility in water, prior art” value in series [2] was “insoluble in water”.

With `CP(C)(=O)COC(=O)c1ccccc1Nc1cccc(C(F)(F)F)c1` [Compound 1a, dimethylphosphinylmethyl N-(3-trifluoromethyl-phenyl)-anthranilate], in series [3], the Adjuvant arthritis is recorded as 5-10 and the “adjuvant arthritis test compared with comparison compound” value is given as “considerably better than that of Comparision Compound C”. Also, the “toxicity compared with comparison compound” value in series [4] is on record as “substantially more favourable than that of Compound C”. The “analgesic activities compared with comparison compound” value in series [5] was “clearly improved over that of Comparison Compound C”.

Regarding `Cc1cccc(Nc2ccccc2C(=O)OCP(C)(C)=O)c1C` [Compound 1c, Dimethylphosphinyl-methyl N-(2,3-dimethylphenyl)-anthranilate], the “Randall-Selitto test compared with comparison compound” value in series [6] is given as “substantial improvement over the Comparison Compound”. The “toxicity compared with comparison compound” value in series [4] is listed as “more favourable toxicity than Compound B”. Also, the “Carrageenin oedema test / anti-inflammatory activity compared with comparison compound” value in series [7] is recorded as “more or less equivalent to these of the commercial compound”.

On to `Cc1cccc(Nc2ccccc2C(=O)OCCCP(C)(C)=O)c1C` [Compound 1d, Dimethylphosphinyl-propyl N-(2,3-dimethylphenyl)-anthranilate], for which the “Writhing test compared with comparison compound” value in series [8] is “substantial improvement over the Comparison Compound”. For the same compound, the “toxicity compared with comparison compound” value in series [4] is “more favourable toxicity than Compound B”. The “Carrageenin oedema test / anti-inflammatory activity compared with comparison compound” value in series [7] was “more or less equivalent to these of the commercial compound”.

As to `CP(C)(=O)CCCOC(=O)c1ccccc1Nc1cccc(C(F)(F)F)c1` [Compound 1e, Dimethylphosphinyl-propyl N-(3-trifluoromethylphenyl)-anthranilate], in series [3], the Adjuvant arthritis is listed as 10-25 and the “adjuvant arthritis test compared with comparison compound” value is “considerably better than that of Comparision Compound C”. In addition, the “toxicity compared with comparison compound” value in series [4] was “substantially more favourable than that of Compound C”.

For the compound `CP(C)(=O)CCCOC(=O)c1ccccc1Nc1c(C(F)(F)F)cnc2ccccc12` [Compound 1f, 3-(Dimethylphosphinyl)-propyl N-(3-trifluoromethyl-4-quinolyl)-anthranilate], the “analgesic activities compared with comparison compound” value in series [5] was “clearly improved over that of Comparison Compound C”.

On to `CP(C)(=O)COC(=O)c1ccccc1Nc1ccnc2c(C(F)(F)F)cccc12` [Compound 2a, dimethylphosphinylmethyl N-(8-trifluoromethyl-4-quinolyl)-anthranilate], for which, in series [8], the “Writhing test compared with comparison compound” value is given as “substantially better than the Comparison compound”. Besides, in series [4], the “toxicity compared with comparison compound” value is listed as “lower than that of Compound A”.

Regarding `CP(C)(=O)COC(=O)c1ccccc1Nc1ccnc2cc(Cl)ccc12` [Compound 2c, 3-(dimethylphosphinyl)-methyl N-(7-chloro-4-quinolyl)-anthranilate], the “Writhing test compared with comparison compound” value in series [8] is reported as “substantially better than the Comparison compound”. For the same compound, the “Carrageenin oedema test / anti-inflammatory activity compared with comparison compound” value in series [7] was “show an improvement compared with Compound A”.

Turning to `CP(C)(=O)COC(=O)c1cccnc1Nc1cccc(C(F)(F)F)c1` [Compound 2d, 3-(dimethylphosphinyl)-methyl 2-(3-trifluoromethylanilino)-nicotinate], the “toxicity compared with comparison compound” value in series [4] is “more than twice that of Comparision Compouhd D”. Also, in series [7], the “Carrageenin oedema test / anti-inflammatory activity compared with comparison compound” value is given as “practically almost equal to that of the Comparison Compound”.

Consider `CP(C)(=O)CCCOC(=O)c1ccccc1Nc1ccnc2cc(Cl)ccc12` [Compound 4, 3-(dimethylphosphinyl)-propyl N-(7-chloro-4-quinolyl)-anthranilate], for which the “Carrageenin oedema test / anti-inflammatory activity compared with comparison compound” value in series [7] is on record as “show an improvement compared with Compound A”.

Regarding `O=C(O)c1ccccc1Nc1cccc(C(F)(F)F)c1` [Compound C, Flufenamic acid, reference compound], in series [3], the Adjuvant arthritis is recorded as 25-50.
